Measurements published in patent US10918713B2, “Epitopes from allergen proteins and methods and uses for immune response modulation” (LA JOLLA INSTITUTE FOR ALLERGY AND IMMUNOLOGY, priority 2012, dated 2021).
Values joined by “and” are separate entries in the source; they are usually repeats but may differ in a detail not shown here. Equal entries are not always repeated.

What was measured:
Format in all cases: cell-based, human
[1] = tested on: PBMC from allergic donors; experiment: Dual ELISPOT, total IL-5 and IFN-γ response (SFC); conditions: sum of IFNg and IL-5
Experimental: (§1) Spots were counted by computer-assisted image analysis (Zeiss, KS-ELISPOT reader, Munich, Germany).
(§2) Each assay was performed in triplicate. The level of statistical significance was determined with a Student's t-test using the mean of triplicate values of the response against relevant pools or individual peptides versus the response against the DMSO control.

[2] = tested on: PBMC from allergic donors; experiment: IL-5 ELISPOT with extract-stimulated short-term lines; conditions: positive donor/peptide response
Experimental: as §1, §2

[3] = tested on: PBMC from allergic donors; experiment: IFN-γ ELISPOT with extract-stimulated short-term lines; conditions: positive donor/peptide response
Experimental: as §1, §2

| Molecule | Response (SFC/10^6) Total ([1]; each table line is one donor) | Response (SFC/10^6) IL-5 ([2]; each table line is one donor) | Response (SFC/10^6) IFNg ([3]; each table line is one donor) [SFC/10^6] | Response (SFC/10^6) Total ([1]; one donor per table line) | Response (SFC/10^6) IL-5 ([2]; one donor per table line) | Response (SFC/10^6) IFNg ([3]; one donor per table line) |
| --- | --- | --- | --- | --- | --- | --- |
| CC[C@H](C)[C@H](NC(=O)[C@@H](NC(=O)[C@H](CCC(=O)O)NC(=O)[C@H](CC(=O)O)NC(=O)[C@H](Cc1ccccc1)NC(=O)[C@@H](NC(=O)[C@@H](N)CC(N)=O)C(C)C)C(C)C)C(=O)N1CCC[C@H]1C(=O)N[C@H](C(=O)N[C@@H](C)C(=O)N[C@@H](Cc1ccccc1)C(=O)N[C@H](C(=O)N[C@H](C(=O)NCC(=O)N[C@@H](CCCCN)C(=O)O)C(C)C)[C@@H](C)O)[C@@H](C)O [3324.1141] | 2258 SFC/10^6 and 1083 SFC/10^6 | 2258 SFC/10^6 and 820 SFC/10^6 | 263 |  |  |  |
| CC[C@H](C)[C@H](NC(=O)[C@H](CCSC)NC(=O)[C@H](CCCNC(=N)N)NC(=O)[C@H](Cc1ccccc1)NC(=O)[C@H](CCCCN)NC(=O)[C@@H](NC(=O)[C@H](CCSC)NC(=O)[C@H](CC(N)=O)NC(=O)[C@H](Cc1ccc(O)cc1)NC(=O)[C@@H](NC(=O)[C@@H](N)CCC(=O)O)[C@@H](C)CC)C(C)C)C(=O)N[C@@H](C)C(=O)NCC(=O)N[C@@H](CCC(N)=O)C(=O)N[C@@H](CCC(=O)O)C(=O)O [3324.0978] |  |  |  | 167 SFC/10^6 and 1100 SFC/10^6 and 667 SFC/10^6 | 167 SFC/10^6 and 1100 SFC/10^6 | 667 SFC/10^6 |
| CC(C)[C@H](NC(=O)CNC(=O)[C@H](CO)NC(=O)[C@H](Cc1ccccc1)NC(=O)[C@H](C)NC(=O)[C@H](Cc1c[nH]c2ccccc12)NC(=O)[C@H](CS)NC(=O)[C@@H](N)CO)C(=O)N[C@@H](C)C(=O)N[C@@H](C)C(=O)N[C@H](C(=O)N[C@@H](CCC(=O)O)C(=O)N[C@@H](CO)C(=O)N[C@@H](C)C(=O)N[C@@H](Cc1ccc(O)cc1)C(=O)O)[C@@H](C)O [3324.0832] |  |  |  | 1303 SFC/10^6 and 1007 SFC/10^6 | 460 SFC/10^6 and 773 SFC/10^6 | 843 SFC/10^6 and 233 SFC/10^6 |
| CC[C@H](C)[C@H](NC(=O)[C@H](CC(N)=O)NC(=O)[C@H](CC(C)C)NC(=O)[C@H](CC(N)=O)NC(=O)[C@H](CCCCN)NC(=O)[C@H](CO)NC(=O)[C@H](Cc1ccccc1)NC(=O)[C@@H](NC(=O)[C@@H](NC(=O)[C@H](Cc1c[nH]c2ccccc12)NC(=O)[C@H](CC(C)C)NC(=O)[C@H](CO)NC(=O)[C@H](CCCNC(=N)N)NC(=O)[C@@H](N)CCC(=O)O)[C@@H](C)CC)[C@@H](C)CC)C(=O)N[C@@H](CCCCN)C(=O)O [3324.0517] |  |  |  | 117 SFC/10^6 and 97 SFC/10^6 | 117 SFC/10^6 | 97 SFC/10^6 |
| 3324.0380 (VILAINHSVFVKGDH) |  |  |  | 1410 SFC/10^6 |  | 1410 SFC/10^6 |
| 3324.1152 (FPHRKGVLFNIQYVN) | 100 SFC/10^6 |  | 100 |  |  |  |
| 3324.0379 (TNFEIEASFGVEASE) |  |  |  | 1113 SFC/10^6 |  | 1113 SFC/10^6 |
| 3337.0006 (KQEDDGLCYEGTNCG) | 123 SFC/10^6 |  | 123 |  |  |  |
| 3324.0382 (LYPDVKYTTVEEYLQ) |  |  |  |  | 67 SFC/10^6 | 67 SFC/10^6 |
| 3337.0039 (SWGAIWRIDTPDKLT) | 155 SFC/10^6 |  | 155 |  |  |  |
| 3324.0103 (IAKVPPGPNITATYG) |  |  |  | 153 SFC/10^6 and 223 SFC/10^6 and 267 SFC/10^6 |  | 153 SFC/10^6 and 223 SFC/10^6 and 267 SFC/10^6 |
| 3324.0630 (LVATSAISLHMQEAG) |  |  |  | 83 SFC/10^6 |  | 83 SFC/10^6 |
| 3324.1166 (HTVALFLAVALVAGP) | 53 SFC/10^6 |  | 53 |  |  |  |
| 3324.1443 (DAAYRVAYEAAEGST) | 70 SFC/10^6 |  | 70 |  |  |  |
| 3324.0639 (TVWAQSAAFPAFKPE) |  |  |  | 463 SFC/10^6 and 100 SFC/10^6 |  | 463 SFC/10^6 and 100 SFC/10^6 |
| 3324.1169 (DAALKLAYEAAQGAT) | 120 SFC/10^6 |  | 120 |  |  |  |
| 3324.1159 (PENFAVVDLNQMRAV) | 75 SFC/10^6 |  | 75 |  |  |  |
| CC[C@H](C)[C@H](NC(=O)[C@H](CC(N)=O)NC(=O)[C@H](CCSC)NC(=O)[C@H](CC(N)=O)NC(=O)[C@H](CCC(N)=O)NC(=O)[C@H](CO)NC(=O)[C@H](Cc1ccccc1)NC(=O)[C@@H](NC(=O)[C@@H](NC(=O)[C@H](Cc1c[nH]c2ccccc12)NC(=O)[C@H](CC(C)C)NC(=O)[C@H](C)NC(=O)[C@@H](N)CCCCN)[C@@H](C)CC)[C@@H](C)CC)C(=O)N[C@@H](CCCCN)C(=O)N[C@@H](CC(C)C)C(=O)O [3324.0604] |  |  |  | 390 SFC/10^6 |  | 390 SFC/10^6 |
| 3324.1177 (AAVKQAYAAKQATAP) | 43 SFC/10^6 |  | 43 |  |  |  |
| 3324.0372 (PAKNIYSFNEIVALW) |  |  |  | 67 SFC/10^6 |  | 67 SFC/10^6 |
| CC[C@H](C)[C@H](NC(=O)[C@H](CO)NC(=O)CNC(=O)CN)C(=O)N[C@@H](CC(C)C)C(=O)N[C@@H](CCCCN)C(=O)N[C@H](C(=O)N[C@@H](CO)C(=O)N[C@@H](CC(N)=O)C(=O)N[C@@H](CCCCN)C(=O)N[C@@H](Cc1ccccc1)C(=O)N[C@@H](Cc1c[nH]cn1)C(=O)N[C@H](C(=O)N[C@@H](CCCCN)C(=O)NCC(=O)O)[C@@H](C)O)[C@@H](C)CC [3324.0007] |  |  |  | 887 SFC/10^6 and 357 SFC/10^6 |  | 887 SFC/10^6 and 357 SFC/10^6 |
| CC[C@H](C)[C@H](NC(=O)[C@H](CC(N)=O)NC(=O)[C@H](CCCCN)NC(=O)[C@H](C)NC(=O)[C@@H]1CCCN1C(=O)[C@H](CCCCN)NC(=O)[C@@H](NC(=O)[C@H](Cc1ccc(O)cc1)NC(=O)[C@@H](NC(=O)[C@@H](NC(=O)[C@H](CCCCN)NC(=O)[C@H](CC(N)=O)NC(=O)[C@H](CC(C)C)NC(=O)[C@@H](NC(=O)[C@@H](N)CCCNC(=N)N)[C@@H](C)O)[C@@H](C)CC)C(C)C)[C@@H](C)CC)C(=O)O [3324.0387] |  |  |  | 580 SFC/10^6 and 140 SFC/10^6 |  | 580 SFC/10^6 and 140 SFC/10^6 |
| 3324.0922 (TGLPLMYKFGDNLVV) |  |  |  | 247 SFC/10^6 |  | 247 SFC/10^6 |
| CC[C@H](C)[C@H](N)C(=O)N[C@H](C(=O)N[C@@H](Cc1ccc(O)cc1)C(=O)N[C@H](C(=O)N[C@@H](CCCCN)C(=O)N1CCC[C@H]1C(=O)N[C@@H](C)C(=O)N[C@@H](CCCCN)C(=O)N[C@@H](CC(N)=O)C(=O)N[C@H](C(=O)N[C@@H](Cc1ccc(O)cc1)C(=O)N[C@@H](CO)C(=O)N[C@@H](Cc1ccccc1)C(=O)N[C@@H](CC(N)=O)C(=O)N[C@@H](CCC(=O)O)C(=O)O)[C@@H](C)CC)[C@@H](C)CC)C(C)C [3324.0386] |  |  |  | 227 SFC/10^6 and 487 SFC/10^6 |  | 227 SFC/10^6 and 487 SFC/10^6 |
| 3324.0001 (AVGLLKAVESYLLAH) |  |  |  |  | 597 SFC/10^6 | 597 SFC/10^6 |
